From patent publication US9751862B2, “Pesticidally active substituted pyridyl carboxamides” (Syngenta Participations AG, priority 2014, dated 2017) come the findings set out here.

Where two headings read alike, the source gives them in different places.

Assay type in all cases: in vivo
In one experiment the test system is Bemisia tabaci. In words: Activity against Bemisia tabaci (adults on cotton, contact, preventative). Conditions: foliar, 168 h, sprayed cotton leaf discs, adult white flies, 7 DAT. How it is done: Example B3: Activity Against Bemisia tabaci, (Adults on Cotton, Contact, Preventative)
Cotton leaf discs are placed on agar in a 24-well microtiter plate and sprayed with test solutions. After drying, the leaf discs are infested with adult white flies. After an incubation period of 7 DAT, samples are checked for mortality and special effects (e.g. phytotoxicity).

In experiment [1] the test system is Myzus persicae (Green Peach Aphid). Kind of experiment: Activity against Myzus persicae (mixed population, feeding/residual contact activity, preventive), sunflower leaf discs. Particulars: foliar, 144 h, read-out: activity (mortality). How it is done:
Sunflower leaf discs were placed on agar in a 24-well microtiter plate and sprayed with test solutions. After drying, the leaf discs were infested with an aphid population of mixed ages. After an incubation period of 6 days, samples were checked for mortality and special effects (e.g. phytotoxicity).

Experiment [2] has the same test system. Kind of experiment: Activity against Myzus persicae (mixed population, systemic/feeding activity, curative), pea seedlings. Conditions: 144 h, pea seedling roots in test solution, 6 days after introduction. The text has this: Example B2: Activity Against Myzus persicae (Green Peach Aphid) (Mixed Population, Systemic/Feeding Activity, Curative)
Pea seedlings, infested with an aphid population of mixed ages, were placed with the roots directly in the test solutions. 6 days after introduction, samples were checked for mortality and special effects on the plant.

Experiment [3] relates to Frankliniella occidentalis (Western Flower Thrips). In words: Activity against Frankliniella occidentalis (mixed population, contact/feeding), bean plants. Conditions: 200 ppm; sprayed bean plants; 14 days after infestation. As to the method: Example B4: Activity Against Frankliniella occidentalis (Western Flower Thrips) (Mixed Population, Contact/Feeding)
Bean plants were treated with diluted test solutions in a spray chamber. After drying, plants were infested with a thrips population of mixed ages. 14 days after the infestation, samples were checked for damage reduction compare to the non treated samples.

The mark [4] stands for this setting: 200 ppm, sprayed sunflower leaf discs, 6 days incubation.

One may read the mortality as the share of the test organisms that died.

Take `Cc1cc(CC#N)cnc1-n1ncc(C(=O)N(C)c2cccnc2)c1C` [Compound 1.001, 1-[5-(cyanomethyl)-3-methyl-2-pyridyl]-N,5-dimethyl-N-(3-pyridyl)pyrazole-4-carboxamide]: the figures for the mortality at 200 ppm (in the experiment on Bemisia tabaci; in experiment [1] (setting [4])) were more than 80% and not below 80%, respectively. In addition, the mortality at 24 ppm in experiment [2] was more than 80%.

In the case of `Cc1cc(C2(C#N)CC2)cnc1-n1ncc(C(=O)N(C)c2cccnc2)c1C` [Compound 1.002, 1-[5-(1-cyanocyclopropyl)-3-methyl-2-pyridyl]-N,5-dimethyl-N-(3-pyridyl)pyrazole-4-carboxamide], the mortality at 200 ppm in experiment [1] (setting [4]) was not below 80%. In addition, in experiment [2], the mortality at 24 ppm was more than 80%. In the case of `Cc1cc(C(C)C#N)cnc1-n1ncc(C(=O)N(C)c2cccnc2)c1C` (stereo not shown) [Compound 1.003, 1-[5-(1-cyanoethyl)-3-methyl-2-pyridyl]-N,5-dimethyl-N-(3-pyridyl)pyrazole-4-carboxamide], the “activity (damage reduction compared to non treated samples)” value in experiment [3] is listed as “over 80%”. Also, the mortality at 200 ppm in experiment [1] (setting [4]) was not below 80%. Turning to `Cc1cc(C(C)(C)C#N)cnc1-n1ncc(C(=O)N(C)c2cccnc2)c1C` [Compound 1.004, 1-[5-(1-cyano-1-methyl-ethyl)-3-methyl-2-pyridyl]-N,5-dimethyl-N-(3-pyridyl)pyrazole-4-carboxamide], the mortality at 200 ppm in experiment [1] (setting [4]) is not below 80%. Besides, the mortality at 24 ppm in experiment [2] was more than 80%.

`Cc1cc(/C(C#N)=N/O)cnc1-n1ncc(C(=O)N(C)c2cccnc2)c1C` [Compound 1.007, 1-[5-[(Z)-C-cyano-N-hydroxy-carbonimidoyl]-3-methyl-2-pyridyl]-N,5-dimethyl-N-(3-pyridyl)pyrazole-4-carboxamide]: the mortality at 200 ppm in experiment [1] (setting [4]) is not below 80%. In experiment [2], this compound returned a mortality at 24 ppm of more than 80%. Turning to `CCO/N=C(\C#N)c1cnc(-n2ncc(C(=O)N(C)c3cccnc3)c2C)c(C)c1` [Compound 1.008, (3E/Z)-N-ethoxy-5-methyl-6-[5-methyl-4-[methyl(3-pyridyl)carbamoyl]pyrazol-1-yl]pyridine-3-carboximidoyl cyanide], the mortality at 200 ppm in experiment [1] was not below 80%.

On to `CCOC(=O)C(CC)c1cnc(-n2ncc(C(=O)N(C)c3cccnc3)c2C)c(C)c1` (stereo not shown) [Compound 1.009], for which the mortality at 200 ppm in experiment [1] (setting [4]) is not below 80%.
